Several values for one entry are separate records, joined by “and”; a condition that tells them apart may be missing. Identical values can stand only once. Toxic doses and inconclusive results are not listed.
Tested on: BDF1 mice, P1081 chloroleukemia ip, survival T/C
Assay: NCI In Vivo Anticancer Drug Screen. Data for tumor model P1081 Chloroleukemia (intraperitoneal) in B6D2F1 (BDF1) mice
Details: endpoint: mean survival time, higher = longer survival
Procedure: The antitumor activity of compounds was measured in mice bearing transplantable tumors. Survival or tumor size were measured and the results are expressed as the measurement made in the treated group (T) divided by the measurement made in the vehicle treated control group (C). The tumor model used in this assay is P1081 Chloroleukemia (intraperitoneal) in B6D2F1 (BDF1) mice

[1] = dose: 6.25 mg/kg/injection, schedule: Q01DX Z (ip), vehicle: carboxymethylcellulose (CMC)
[2] = dose: 12.5 mg/kg/injection, schedule: Q01DX Z (ip), vehicle: carboxymethylcellulose (CMC)
[3] = dose: 62.5 mg/kg/injection, schedule: Q01DX010 (ip), vehicle: saline
[4] = dose: 125.0 mg/kg/injection, schedule: Q01DX010 (ip), vehicle: saline
[5] = dose: 62.5 mg/kg/injection, schedule: Q01DX Z (ip), vehicle: carboxymethylcellulose (CMC)
[6] = dose: 125.0 mg/kg/injection, schedule: Q01DX Z (ip), vehicle: carboxymethylcellulose (CMC)
[7] = dose: 63.0 mg/kg/injection, schedule: Q01DX Z (ip), vehicle: carboxymethylcellulose (CMC)
[8] = dose: 31.3 mg/kg/injection, schedule: Q01DX010 (ip), vehicle: saline
[9] = dose: 250.0 mg/kg/injection, schedule: Q01DX010 (ip), vehicle: saline
[10] = dose: 15.6 mg/kg/injection, schedule: Q01DX010 (ip), vehicle: saline

## CS(=O)(=O)OCC(O)C(O)COS(C)(=O)=O (stereo unspecified)
dose: 94.0 mg/kg/injection, schedule: Q01DX Z (ip), vehicle: saline
  T/C: 86 % of control
dose: 188.0 mg/kg/injection, schedule: Q01DX Z (ip), vehicle: saline
  T/C: 107 % of control
dose: 375.0 mg/kg/injection, schedule: Q01DX Z (ip), vehicle: saline
  T/C: 95 % of control
dose: 750.0 mg/kg/injection, schedule: Q01DX Z (ip), vehicle: saline
  T/C: 122 % of control
dose: 1500.0 mg/kg/injection, schedule: Q01DX Z (ip), vehicle: saline
  T/C: 166 % of control
dose: 3000.0 mg/kg/injection, schedule: Q01DX Z (ip), vehicle: saline
  T/C: 173 % of control

## N[C@@H](Cc1ccc(N(CCCl)CCCl)cc1)C(=O)O
dose: 0.31 mg/kg/injection, schedule: Q01DX Z (ip), vehicle: saline
  T/C: 159 % of control
dose: 0.63 mg/kg/injection, schedule: Q01DX Z (ip), vehicle: saline
  T/C: 206 % of control
dose: 1.25 mg/kg/injection, schedule: Q01DX Z (ip), vehicle: saline
  T/C: 193 % of control
dose: 2.5 mg/kg/injection, schedule: Q01DX Z (ip), vehicle: saline
  T/C: 229 % of control
dose: 5.0 mg/kg/injection, schedule: Q01DX Z (ip), vehicle: saline
  T/C: 217 % of control
dose: 10.0 mg/kg/injection, schedule: Q01DX Z (ip), vehicle: saline
  T/C: 107 % of control

## CSc1ncnc2nc[nH]c12
[1]
  T/C: 100 % of control
[2]
  T/C: 100 % of control
dose: 25.0 mg/kg/injection, schedule: Q01DX Z (ip), vehicle: carboxymethylcellulose (CMC)
  T/C: 93 % of control
dose: 100.0 mg/kg/injection, schedule: Q01DX010 (ip), vehicle: saline
  T/C: 115 % of control
dose: 200.0 mg/kg/injection, schedule: Q01DX010 (ip), vehicle: saline
  T/C: 120 % of control
dose: 200.0 mg/kg/injection, schedule: Q01DX Z (ip), vehicle: carboxymethylcellulose (CMC)
  T/C: 114 % of control

## c1ccc(CCSc2ncnc3nc[nH]c23)cc1
[3]
  T/C: 120 % of control
[4]
  T/C: 120 % of control

## C[C@]12C=CC(=O)C=C1CC[C@@H]1[C@@H]2C(=O)C[C@@]2(C)[C@H]1CC[C@]2(O)C(=O)CO
dose: 6.25 mg/kg/injection, schedule: Q01DX Z (sc), vehicle: steriod suspending solution
  T/C: 114 % of control
dose: 12.5 mg/kg/injection, schedule: Q01DX010 (sc), vehicle: steriod suspending solution
  T/C: 93 % of control and 100 % of control
dose: 12.5 mg/kg/injection, schedule: Q01DX Z (sc), vehicle: steriod suspending solution
  T/C: 111 % of control and 124 % of control
dose: 25.0 mg/kg/injection, schedule: Q01DX010 (sc), vehicle: steriod suspending solution
  T/C: 112 % of control and 100 % of control and 101 % of control
dose: 25.0 mg/kg/injection, schedule: Q01DX Z (sc), vehicle: steriod suspending solution
  T/C: 105 % of control and 117 % of control
dose: 50.0 mg/kg/injection, schedule: Q01DX010 (sc), vehicle: steriod suspending solution
  T/C: 107 % of control and 95 % of control and 100 % of control
dose: 50.0 mg/kg/injection, schedule: Q01DX Z (sc), vehicle: steriod suspending solution
  T/C: 105 % of control and 91 % of control
dose: 100.0 mg/kg/injection, schedule: Q01DX010 (sc), vehicle: steriod suspending solution
  T/C: 112 % of control and 92 % of control and 93 % of control
dose: 100.0 mg/kg/injection, schedule: Q01DX Z (sc), vehicle: steriod suspending solution
  T/C: 92 % of control and 102 % of control
dose: 200.0 mg/kg/injection, schedule: Q01DX010 (sc), vehicle: steriod suspending solution
  T/C: 92 % of control and 93 % of control
dose: 200.0 mg/kg/injection, schedule: Q01DX Z (sc), vehicle: steriod suspending solution
  T/C: 98 % of control

## Clc1ncnc2nc[nH]c12
dose: 7.5 mg/kg/injection, schedule: Q01DX010 (ip), vehicle: saline
  T/C: 110 % of control and 90 % of control
dose: 15.0 mg/kg/injection, schedule: Q01DX010 (ip), vehicle: saline
  T/C: 90 % of control and 100 % of control
dose: 30.0 mg/kg/injection, schedule: Q01DX010 (ip), vehicle: saline
  T/C: 110 % of control and 95 % of control
dose: 31.25 mg/kg/injection, schedule: Q01DX Z (ip), vehicle: carboxymethylcellulose (CMC)
  T/C: 98 % of control
dose: 60.0 mg/kg/injection, schedule: Q01DX010 (ip), vehicle: saline
  T/C: 110 % of control and 104 % of control
[5]
  T/C: 107 % of control and 105 % of control
[6]
  T/C: 114 % of control and 121 % of control
dose: 250.0 mg/kg/injection, schedule: Q01DX Z (ip), vehicle: carboxymethylcellulose (CMC)
  T/C: 86 % of control and 94 % of control

## CCOC(=O)NP(=O)(N1CC1(C)C)N1CC1(C)C (stereo unspecified)
dose: 8.0 mg/kg/injection, schedule: Q01DX Z (ip), vehicle: carboxymethylcellulose (CMC)
  T/C: 109 % of control
dose: 16.0 mg/kg/injection, schedule: Q01DX Z (ip), vehicle: carboxymethylcellulose (CMC)
  T/C: 106 % of control and 99 % of control
[5]
  T/C: 87 % of control and 104 % of control
[7]
  T/C: 169 % of control

## O=C(Nc1ccc(C2=NCCCN2)cc1)c1ccc(C(=O)Nc2ccc(C3=NCCCN3)cc2)cc1
dose: 0.5 mg/kg/injection, schedule: Q01DX Z (ip), vehicle: water
  T/C: 109 % of control and 101 % of control
dose: 1.0 mg/kg/injection, schedule: Q01DX Z (ip), vehicle: water
  T/C: 110 % of control and 118 % of control
dose: 4.0 mg/kg/injection, schedule: Q01DX Z (ip), vehicle: water
  T/C: 162 % of control

## C[C@]12CCC(=O)C[C@H]1CC[C@@H]1[C@@H]2CC[C@@]2(C)[C@H]1CC[C@]2(C)O
dose: 62.5 mg/kg/injection, schedule: Q01DX Z (sc), vehicle: steriod suspending solution
  T/C: 114 % of control
dose: 125.0 mg/kg/injection, schedule: Q01DX Z (sc), vehicle: steriod suspending solution
  T/C: 100 % of control
dose: 250.0 mg/kg/injection, schedule: Q01DX Z (sc), vehicle: steriod suspending solution
  T/C: 110 % of control
dose: 500.0 mg/kg/injection, schedule: Q01DX Z (sc), vehicle: steriod suspending solution
  T/C: 112 % of control

## Nc1nc(SCc2ccccc2)c2[nH]cnc2n1
dose: 4.7 mg/kg/injection, schedule: Q01DX Z (ip), vehicle: carboxymethylcellulose (CMC)
  T/C: 91 % of control
dose: 8.0 mg/kg/injection, schedule: Q01DX010 (ip), vehicle: saline
  T/C: 110 % of control and 116 % of control
dose: 9.4 mg/kg/injection, schedule: Q01DX Z (ip), vehicle: carboxymethylcellulose (CMC)
  T/C: 90 % of control
dose: 16.0 mg/kg/injection, schedule: Q01DX010 (ip), vehicle: saline
  T/C: 116 % of control and 105 % of control
dose: 18.75 mg/kg/injection, schedule: Q01DX Z (ip), vehicle: carboxymethylcellulose (CMC)
  T/C: 100 % of control
dose: 32.0 mg/kg/injection, schedule: Q01DX010 (ip), vehicle: saline
  T/C: 110 % of control and 122 % of control
dose: 64.0 mg/kg/injection, schedule: Q01DX010 (ip), vehicle: saline
  T/C: 105 % of control

## CCCSc1ncnc2nc[nH]c12
[1]
  T/C: 111 % of control
[2]
  T/C: 122 % of control
[8]
  T/C: 105 % of control and 100 % of control
[3]
  T/C: 105 % of control and 111 % of control
[4]
  T/C: 105 % of control and 111 % of control
[9]
  T/C: 122 % of control and 100 % of control

## O=c1[nH]c(=O)n(C2CC(O)C(CO)O2)cc1F (stereo unspecified)
dose: 5.0 mg/kg/injection, schedule: Q01DX010 (ip), vehicle: saline
  T/C: 110 % of control
[1]
  T/C: 124 % of control
dose: 10.0 mg/kg/injection, schedule: Q01DX010 (ip), vehicle: saline
  T/C: 120 % of control and 104 % of control
[2]
  T/C: 122 % of control
dose: 20.0 mg/kg/injection, schedule: Q01DX010 (ip), vehicle: saline
  T/C: 110 % of control
dose: 40.0 mg/kg/injection, schedule: Q01DX010 (ip), vehicle: saline
  T/C: 155 % of control and 250 % of control
dose: 50.0 mg/kg/injection, schedule: Q01DX Z (ip), vehicle: carboxymethylcellulose (CMC)
  T/C: 172 % of control

## Nc1c(Br)cc2c(c1Br)Cc1cc([N+](=O)[O-])ccc1-2
[10]
  T/C: 100 % of control
[8]
  T/C: 105 % of control
[3]
  T/C: 110 % of control and 100 % of control
[4]
  T/C: 100 % of control
[9]
  T/C: 100 % of control
dose: 500.0 mg/kg/injection, schedule: Q01DX010 (ip), vehicle: saline
  T/C: 95 % of control

## CCn1cnc2c(=S)nc[nH]c21
dose: 7.75 mg/kg/injection, schedule: Q01DX Z (ip), vehicle: carboxymethylcellulose (CMC)
  T/C: 112 % of control
dose: 15.5 mg/kg/injection, schedule: Q01DX Z (ip), vehicle: carboxymethylcellulose (CMC)
  T/C: 101 % of control
[10]
  T/C: 110 % of control and 105 % of control
dose: 31.0 mg/kg/injection, schedule: Q01DX Z (ip), vehicle: carboxymethylcellulose (CMC)
  T/C: 105 % of control
[8]
  T/C: 100 % of control and 105 % of control
[3]
  T/C: 110 % of control and 105 % of control
[5]
  T/C: 110 % of control
[7]
  T/C: 98 % of control
[4]
  T/C: 115 % of control
[6]
  T/C: 86 % of control

Reference: PubChem BioAssay AID246 (DTP/NCI, 2004)
